# Reference: the NIST ThermoML archive (doi:10.1007/s10765-013-1539-3)
# Test: wn = mass fraction of the nth substance listed
# Conditions: Gas, Steady Flow, w1 = 0.5
structure (smiles),measurement,setting,value
[HH] [hydrogen] + C,binary diffusion coefficient,"250 K, 100 kPa",5.3e-05 m2/s
same,binary diffusion coefficient,"250 K, 4000 kPa",1.32e-05 m2/s
same,binary diffusion coefficient,"250 K, 7000 kPa",6.3e-06 m2/s
same,binary diffusion coefficient,"250 K, 10000 kPa",3.8e-06 m2/s
same,binary diffusion coefficient,"250 K, 15000 kPa",2.91e-06 m2/s
same,binary diffusion coefficient,"280 K, 100 kPa",6.6e-05 m2/s
same,binary diffusion coefficient,"280 K, 4000 kPa",1.84e-05 m2/s
same,binary diffusion coefficient,"280 K, 7000 kPa",8.5e-06 m2/s
same,binary diffusion coefficient,"280 K, 10000 kPa",5.4e-06 m2/s
same,binary diffusion coefficient,"280 K, 15000 kPa",4.05e-06 m2/s
same,binary diffusion coefficient,"320 K, 100 kPa",8.3e-05 m2/s
same,binary diffusion coefficient,"320 K, 4000 kPa",2.31e-05 m2/s
same,binary diffusion coefficient,"320 K, 7000 kPa",1.17e-05 m2/s
same,binary diffusion coefficient,"320 K, 10000 kPa",7.5e-06 m2/s
same,binary diffusion coefficient,"320 K, 15000 kPa",5.8e-06 m2/s
same,binary diffusion coefficient,"400 K, 100 kPa",0.000124 m2/s
same,binary diffusion coefficient,"400 K, 4000 kPa",3.62e-05 m2/s
same,binary diffusion coefficient,"400 K, 7000 kPa",1.82e-05 m2/s
same,binary diffusion coefficient,"400 K, 10000 kPa",1.2e-05 m2/s
same,binary diffusion coefficient,"400 K, 15000 kPa",9.5e-06 m2/s
same,binary diffusion coefficient,"480 K, 100 kPa",0.000173 m2/s
same,binary diffusion coefficient,"480 K, 4000 kPa",5.1e-05 m2/s
same,binary diffusion coefficient,"480 K, 7000 kPa",2.52e-05 m2/s
same,binary diffusion coefficient,"480 K, 10000 kPa",1.72e-05 m2/s
same,binary diffusion coefficient,"480 K, 15000 kPa",1.36e-05 m2/s
same,binary diffusion coefficient,"560 K, 100 kPa",0.000227 m2/s
same,binary diffusion coefficient,"560 K, 4000 kPa",6.7e-05 m2/s
same,binary diffusion coefficient,"560 K, 7000 kPa",3.43e-05 m2/s
same,binary diffusion coefficient,"560 K, 10000 kPa",2.3e-05 m2/s
same,binary diffusion coefficient,"560 K, 15000 kPa",1.79e-05 m2/s
same,binary diffusion coefficient,"640 K, 100 kPa",0.00029 m2/s
same,binary diffusion coefficient,"640 K, 4000 kPa",8.4e-05 m2/s
same,binary diffusion coefficient,"640 K, 7000 kPa",4.35e-05 m2/s
same,binary diffusion coefficient,"640 K, 10000 kPa",2.93e-05 m2/s
same,binary diffusion coefficient,"640 K, 15000 kPa",2.28e-05 m2/s
same,binary diffusion coefficient,"720 K, 100 kPa",0.00036 m2/s
same,binary diffusion coefficient,"720 K, 4000 kPa",0.000106 m2/s
same,binary diffusion coefficient,"720 K, 7000 kPa",5.4e-05 m2/s
same,binary diffusion coefficient,"720 K, 10000 kPa",3.61e-05 m2/s
same,binary diffusion coefficient,"720 K, 15000 kPa",2.81e-05 m2/s
same,binary diffusion coefficient,"800 K, 100 kPa",0.000434 m2/s
same,binary diffusion coefficient,"800 K, 4000 kPa",0.000129 m2/s
same,binary diffusion coefficient,"800 K, 7000 kPa",6.5e-05 m2/s
same,binary diffusion coefficient,"800 K, 10000 kPa",4.41e-05 m2/s
same,binary diffusion coefficient,"800 K, 15000 kPa",3.37e-05 m2/s
same,binary diffusion coefficient,"900 K, 100 kPa",0.00054 m2/s
same,binary diffusion coefficient,"900 K, 4000 kPa",0.000159 m2/s
same,binary diffusion coefficient,"900 K, 7000 kPa",8.1e-05 m2/s
same,binary diffusion coefficient,"900 K, 10000 kPa",5.42e-05 m2/s
same,binary diffusion coefficient,"900 K, 15000 kPa",4.11e-05 m2/s
[HH] [hydrogen] + N#N,binary diffusion coefficient,"250 K, 100 kPa",5.86e-05 m2/s
same,binary diffusion coefficient,"250 K, 4000 kPa",1.52e-05 m2/s
same,binary diffusion coefficient,"250 K, 7000 kPa",8.8e-06 m2/s
same,binary diffusion coefficient,"250 K, 10000 kPa",6e-06 m2/s
same,binary diffusion coefficient,"250 K, 15000 kPa",4.21e-06 m2/s
same,binary diffusion coefficient,"300 K, 100 kPa",8e-05 m2/s
same,binary diffusion coefficient,"300 K, 4000 kPa",2.04e-05 m2/s
same,binary diffusion coefficient,"300 K, 7000 kPa",1.24e-05 m2/s
same,binary diffusion coefficient,"300 K, 10000 kPa",8.5e-06 m2/s
same,binary diffusion coefficient,"300 K, 15000 kPa",6e-06 m2/s
same,binary diffusion coefficient,"350 K, 100 kPa",0.000104 m2/s
same,binary diffusion coefficient,"350 K, 4000 kPa",2.68e-05 m2/s
same,binary diffusion coefficient,"350 K, 7000 kPa",1.63e-05 m2/s
same,binary diffusion coefficient,"350 K, 10000 kPa",1.13e-05 m2/s
same,binary diffusion coefficient,"350 K, 15000 kPa",7.9e-06 m2/s
same,binary diffusion coefficient,"400 K, 100 kPa",0.000131 m2/s
same,binary diffusion coefficient,"400 K, 4000 kPa",3.37e-05 m2/s
same,binary diffusion coefficient,"400 K, 7000 kPa",2.05e-05 m2/s
same,binary diffusion coefficient,"400 K, 10000 kPa",1.41e-05 m2/s
same,binary diffusion coefficient,"400 K, 15000 kPa",9.8e-06 m2/s
same,binary diffusion coefficient,"500 K, 100 kPa",0.000192 m2/s
same,binary diffusion coefficient,"500 K, 4000 kPa",4.95e-05 m2/s
same,binary diffusion coefficient,"500 K, 7000 kPa",3.01e-05 m2/s
same,binary diffusion coefficient,"500 K, 10000 kPa",2.07e-05 m2/s
same,binary diffusion coefficient,"500 K, 15000 kPa",1.45e-05 m2/s
same,binary diffusion coefficient,"600 K, 100 kPa",0.000261 m2/s
same,binary diffusion coefficient,"600 K, 4000 kPa",6.8e-05 m2/s
same,binary diffusion coefficient,"600 K, 7000 kPa",4.1e-05 m2/s
same,binary diffusion coefficient,"600 K, 10000 kPa",2.82e-05 m2/s
same,binary diffusion coefficient,"600 K, 15000 kPa",1.96e-05 m2/s
same,binary diffusion coefficient,"700 K, 100 kPa",0.00034 m2/s
same,binary diffusion coefficient,"700 K, 4000 kPa",8.8e-05 m2/s
same,binary diffusion coefficient,"700 K, 7000 kPa",5.32e-05 m2/s
same,binary diffusion coefficient,"700 K, 10000 kPa",3.65e-05 m2/s
same,binary diffusion coefficient,"700 K, 15000 kPa",2.51e-05 m2/s
same,binary diffusion coefficient,"800 K, 100 kPa",0.000427 m2/s
same,binary diffusion coefficient,"800 K, 4000 kPa",0.00011 m2/s
same,binary diffusion coefficient,"800 K, 7000 kPa",6.65e-05 m2/s
same,binary diffusion coefficient,"800 K, 10000 kPa",4.56e-05 m2/s
same,binary diffusion coefficient,"800 K, 15000 kPa",3.15e-05 m2/s
same,binary diffusion coefficient,"900 K, 100 kPa",0.000523 m2/s
same,binary diffusion coefficient,"900 K, 4000 kPa",0.000134 m2/s
same,binary diffusion coefficient,"900 K, 7000 kPa",8.11e-05 m2/s
same,binary diffusion coefficient,"900 K, 10000 kPa",5.55e-05 m2/s
same,binary diffusion coefficient,"900 K, 15000 kPa",3.8e-05 m2/s
